According to patent US8921383B2, “Thiazolopyrimidine compounds” (Hoffmann-La Roche Inc., priority 2011, dated 2014):

Biological target: T1, purified recombinant human SYK360-635 (Homo sapiens, UniProt P43405)
T1 construct: truncated construct of Spleen Tyrosine Kinase aa 360-635; GST; made in house
Assay: SYK kinase assay: 33P γATP incorporation into biotinylated peptide substrate, IC50 determination
Format: biochemical
Conditions: SYK 0.5 nM, ATP 20 μM, DYE peptide 5 μM, 30° C. 15 min; read-out: IC50 h-syk-gst-sf9-c (inactive-dephosphorylated)
Description: Determination of IC50 of Spleen Tyrosine Kinase (SYK) Inhibition:
SYK kinase assay is a standard kinase assay adapted to a 96 well plate format. This assay is performed in 96-well format for IC50 determination with […] which represented 10 half log dilutions and a 40 μL reaction volume. The assay measures the incorporation of radiolabeled ^33P γATP into an N-terminally biotinylated peptide substrate, derived from naturally occurring phosphoacceptor consensus sequence (Biotin-11aa DY*E). Phosphorylated products were detected upon termination of reactions with EDTA and the addition of Streptavidin coated beads.
Assay plates: 96-well MultiScreen 0.65 um filter plates (Millipore Cat. No.: MADVNOB10)
BSA: Bovine Serum Albumin Fraction V, fatty acid free (Roche Diagnostics GmbH, Cat. No. 9100221) diluted to a final concentration of 0.1%
Assay Dilution Buffer (ADB): 50 mM HEPES, 0.1 mM EGTA, 0.1 mM Na Vanadate, 0.1 mM β-glycerophosphate, 10 mM MgCl2, 1 mM DTT, 0.1% BSA, pH 7.5
Bead wash buffer: 10 g/L PBS (Phosphate buffered saline) with 2M NaCl+1% phosphoric acid.
DMSO and the mixture was incubated for 10 min at RT.
The kinase reaction was initiated by the addition of 10 μL 4× substrate cocktail containing the DYE peptide substrate [0 or 5 μM], ATP [20 μM] and ^33PγATP [2 μCi/r×n]. After incubation at 30° C. for 15 min, the reaction was terminated by the transfer of 25 μL of the reaction sample to a 96 well 0.65 μm Millipore MADVNOB membrane/plate containing 200 μL 5 mM EDTA and 20% Streptavidine coated beads in PBS.
After the last wash membrane/plates were transferred to an adaptor plate, heat dried for 15 min at 60° C., and 50 μL scintillation cocktail was added to each well and 4 h later the amount of radioactivity was counted in a top counter.

Row | IC50 [nM] | Structure (SMILES)
1 | 912 | COc1ccc(Nc2nc(N3CCC(NC(=O)c4ccc(C(N)=O)nc4)C3)nc3scnc23)cc1OC (stereo not drawn) [Compound I-37, N5-(1-(7-(3,4-Dimethoxyphenylamino)thiazolo[5,4-d]pyrimidin-5-yl)pyrrolidin-3-yl)pyridine-2,5-dicarboxamide]
2 | 1950 | COC(=O)c1ccc(C(=O)NC2CCN(c3nc(Nc4ccc(OC)c(OC)c4)c4ncsc4n3)C2)cn1 (stereo not drawn) [Compound I-38, Methyl 5-(1-(7-(3,4-dimethoxyphenylamino)thiazolo[5,4-d]pyrimidin-5-yl)pyrrolidin-3-ylcarbamoyl)picolinate]
3 | 129 | COc1ccc(Nc2nc(N3CCC(NC(=O)c4ccc(C(=O)O)nc4)C3)nc3scnc23)cc1OC (stereo not drawn) [Compound I-39, 5-(1-(7-(3,4-Dimethoxyphenylamino)thiazolo[5,4-d]pyrimidin-5-yl)pyrrolidin-3-ylcarbamoyl)picolinic acid]
4 | 1690 | COc1ccc(Nc2nc(N3CCCC(C(=O)Nc4ccc5[nH]ncc5c4)C3)nc3scnc23)cc1OC (stereo not drawn) [Compound I-41, 1-(7-(3,4-Dimethoxyphenylamino)thiazolo[5,4-d]pyrimidin-5-yl)-N-(1H-indazol-5-yl)piperidine-3-carboxamide]
5 | 922 | COc1ccc(Nc2nc(N3CCCC(C(=O)Nc4ccc5cn[nH]c5c4)C3)nc3scnc23)cc1OC (stereo not drawn) [Compound I-45, 1-(7-(3,4-Dimethoxyphenylamino)thiazolo[5,4-d]pyrimidin-5-yl)-N-(1H-indazol-6-yl)piperidine-3-carboxamide]
6 | 71 | COc1ccc(Nc2nc(N3CCCC(C(=O)Nc4ccc(C(=O)O)c(O)c4)C3)nc3scnc23)cc1OC (stereo not drawn) [Compound I-47, 4-(1-(7-(3,4-Dimethoxyphenylamino)thiazolo[5,4-d]pyrimidin-5-yl)piperidine-3-carboxamido)-2-hydroxybenzoic acid]
7 | 1520 | COc1ccc(Nc2nc(N3CCCC(C(=O)Nc4cnccn4)C3)nc3scnc23)cc1OC (stereo not drawn) [Compound I-49, 1-(7-(3,4-Dimethoxyphenylamino)thiazolo[5,4-d]pyrimidin-5-yl)-N-(pyrazin-2-yl)piperidine-3-carboxamide]
8 | 6150 | COc1ccc(Nc2nc(N3CCC(NC(=O)c4ccc(C(=O)O)cc4)C3)nc3scnc23)nc1OC (stereo not drawn) [Compound I-55, 4-(1-(7-(5,6-Dimethoxypyridin-2-ylamino)thiazolo[5,4-d]pyrimidin-5-yl)pyrrolidin-3-ylcarbamoyl)benzoic acid]

Continued, molecule first:

Row | Structure (SMILES) | IC50 [nM]
9 | COc1ccc(Nc2nc(N3CCCC(C(=O)Nc4ccc5c(c4)CC(=O)N5)C3)nc3scnc23)cc1OC (stereo not drawn) [Compound I-40, 1-(7-(3,4-Dimethoxyphenylamino)thiazolo[5,4-d]pyrimidin-5-yl)-N-(2-oxoindolin-5-yl)piperidine-3-carboxamide] | 5410
10 | COc1ccc(Nc2nc(N3CCCC(C(=O)Nc4ccc(C(=O)O)c(OC)c4)C3)nc3scnc23)cc1OC (stereo not drawn) [Compound I-43, 4-({1-[7-(3,4-Dimethoxy-phenylamino)-thiazolo[5,4-d]pyrimidin-5-yl]-piperidine-3-carbonyl}-amino)-2-methoxy-benzoic acid] | 164
11 | COc1ccc(Nc2nc(N3CCCC(C(=O)Nc4ccc(-c5noc(=O)[nH]5)cc4)C3)nc3scnc23)cc1OC (stereo not drawn) [Compound I-44, 1-(7-(3,4-Dimethoxyphenylamino)thiazolo[5,4-d]pyrimidin-5-yl)-N-(4-(5-oxo-4,5-dihydro-1,2,4-oxadiazol-3-yl)phenyl)piperidine-3-carboxamide] | 136
12 | COc1ccc(Nc2nc(N3CCCC(C(=O)Nc4ccc5c(c4)CNC5=O)C3)nc3scnc23)cc1OC (stereo not drawn) [Compound I-46, 1-(7-(3,4-Dimethoxyphenylamino)thiazolo[5,4-d]pyrimidin-5-yl)-N-(1-oxoisoindolin-5-yl)piperidine-3-carboxamide] | 1030
13 | COc1ccc(Nc2nc(N3CCCC(C(=O)NC4CNC(=O)C4)C3)nc3scnc23)cc1OC (stereo not drawn) [Compound I-48, 1-(7-(3,4-Dimethoxyphenylamino)thiazolo[5,4-d]pyrimidin-5-yl)-N-(5-oxopyrrolidin-3-yl)piperidine-3-carboxamide] | 4210
14 | COc1ccc(Nc2nc(N3CCCC(C(=O)Nc4ccc5c(c4)C(=O)NC5=O)C3)nc3scnc23)cc1OC (stereo not drawn) [Compound I-50, 1-(7-(3,4-Dimethoxyphenylamino)thiazolo[5,4-d]pyrimidin-5-yl)-N-(1,3-dioxoisoindolin-5-yl)piperidine-3-carboxamide] | 1920
15 | COc1ccc(Nc2nc(N3CCCC(C(=O)Nc4ccc(-c5nnc(S)o5)cc4)C3)nc3scnc23)cc1OC (stereo not drawn) [Compound I-51, 1-(7-(3,4-Dimethoxyphenylamino)thiazolo[5,4-d]pyrimidin-5-yl)-N-(4-(5-mercapto-1,3,4-oxadiazol-2-yl)phenyl)piperidine-3-carboxamide] | 156
16 | COc1ccc(Nc2nc(N3CCCC(C(=O)Nc4ccc(-c5nnc(S)n5C)cc4)C3)nc3scnc23)cc1OC (stereo not drawn) [Compound I-52, 1-(7-(3,4-Dimethoxyphenylamino)thiazolo[5,4-d]pyrimidin-5-yl)-N-(4-(5-mercapto-4-methyl-4H-1,2,4-triazol-3-yl)phenyl)piperidine-3-carboxamide] | 441
17 | O=C(O)c1cccc(-c2nc(Nc3cccc(N4CC5(COC5)C4)c3)c3ncsc3n2)c1 [Compound I-53, 3-{7-[3-(2-Oxa-6-aza-spiro[3.3]hept-6-yl)-phenylamino]-thiazolo[5,4-d]pyrimidin-5-yl}-benzoic acid] | 3870
18 | COC(=O)c1cccc(-c2nc(Nc3cccc(C(F)(F)F)c3)c3ncsc3n2)c1 [Compound I-56, Methyl 3-(7-(3-(trifluoromethyl)phenylamino)thiazolo[5,4-d]pyrimidin-5-yl)benzoate] | 3180
19 | O=C(O)c1cccc(-c2nc(Nc3cccc(C(F)(F)F)c3)c3ncsc3n2)c1 [Compound I-57, 3-[7-(3-Trifluoromethyl-phenylamino)-thiazolo[5,4-d]pyrimidin-5-yl]-benzoic acid] | 4250
20 | COc1cc(Nc2nc(-c3cccc(C(N)=O)c3)nc3scnc23)cc(OC)c1OC [Compound I-58, 3-[7-(3,4,5-Trimethoxy-phenylamino)-thiazolo[5,4-d]pyrimidin-5-yl]-benzamide] | 2250
21 | C[C@H]1CCCN1c1cccc(Nc2nc(N3CCCC(O)C3)nc3scnc23)c1 (stereo partly drawn) [Compound I-59, 1-(7-(3-((S)-2-Methylpyrrolidin-1-yl)phenylamino)thiazolo[5,4-d]pyrimidin-5-yl)piperidin-3-ol] | 757
22 | COc1cc(Nc2nc(-c3ccc(C(N)=O)cc3)nc3scnc23)cc(N2CCC[C@@H]2C)c1 [Compound I-60, 4-{7-[3-Methoxy-5-((S)-2-methyl-pyrrolidin-1-yl)-phenylamino]-thiazolo[5,4-d]pyrimidin-5-yl}-benzamide] | 1110
23 | COc1ccc(-c2nc(Nc3cccc(N4CCC[C@@H]4C)c3)c3ncsc3n2)cn1 [Compound I-61, (S)-5-(6-Methoxypyridin-3-yl)-N-(3-(2-methylpyrrolidin-1-yl)phenyl)thiazolo[5,4-d]pyrimidin-7-amine] | 1040
24 | C[C@H]1CCCN1c1cccc(Nc2nc(-c3ccc(C(N)=O)cc3)nc3scnc23)c1 [Compound I-62, 4-{7-[3-((S)-2-Methyl-pyrrolidin-1-yl)-phenylamino]-thiazolo[5,4-d]pyrimidin-5-yl}-benzamide] | 337
